Molecular target: T1, AtaC (Vnz_27310) (Streptomyces venezuelae, UniProt F2R7Z6, D269N)
T1 sequence (F2R7Z6 1-401 D269N): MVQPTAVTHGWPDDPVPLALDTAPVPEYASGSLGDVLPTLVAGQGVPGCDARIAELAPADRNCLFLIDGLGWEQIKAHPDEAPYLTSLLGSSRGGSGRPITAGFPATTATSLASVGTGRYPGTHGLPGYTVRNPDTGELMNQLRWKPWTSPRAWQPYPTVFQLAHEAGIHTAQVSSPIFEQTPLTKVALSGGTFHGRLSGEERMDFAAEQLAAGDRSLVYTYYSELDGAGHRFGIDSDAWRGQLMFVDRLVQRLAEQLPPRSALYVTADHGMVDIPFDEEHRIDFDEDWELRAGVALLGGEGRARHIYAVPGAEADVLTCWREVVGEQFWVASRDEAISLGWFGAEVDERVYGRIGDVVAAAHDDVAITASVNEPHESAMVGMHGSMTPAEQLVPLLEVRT
Assay: ITC
Assay type: binding

Nc1ncnc2c1ncn2[C@@H]1O[C@@H]2COP(=O)(O)O[C@H]3[C@@H](O)[C@H](n4cnc5c(N)ncnc54)O[C@@H]3COP(=O)(O)O[C@H]2[C@H]1O [c-di-AMP]
Kd: 949 ± 360 nM
